Results reported in PMC6614837 (Nucleic Acids Research, 2019).

Assays:
[1] = target: T1, RNase P holoenzyme from Thermotoga maritima (Thermotoga maritima, UniProt Q9X1H4); assay: Real-time fluorescence-based (FRET) RNase P activity assay with minihelix (Mh) substrate; type: biochemical; conditions: fluorescent Mh substrate 270 nM, holoenzyme 33 nM, 10% DMSO, 37°C, 400 mM AmOAc, 100 mM MgCl2
T1 construct: made in house
T1 sequence (Q9X1H4 1-117): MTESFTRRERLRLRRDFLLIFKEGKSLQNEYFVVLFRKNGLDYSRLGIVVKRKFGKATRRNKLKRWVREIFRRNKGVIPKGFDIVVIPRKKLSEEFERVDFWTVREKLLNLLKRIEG
In short: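 Reconstituted holoenzyme (P RNA:P protein 1:1.1) at 33 nM with 270 nM minihelix labelled Alexa Fluor 488/BHQ quencher, in buffer H (pH 7.4, 400 mM AmOAc, 100 mM MgCl2), 10% DMSO, 37°C. Cleavage followed as fluorescence increase (ex 485, em 535 nm); initial velocities from linear slopes.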

[2] = target: Bacillus subtilis RNase P; parameters: method as in PMID 25249623; conditions: fluorescent pre-tRNA substrate ref 26; read-out: Reported IC50; cited from earlier work
[3] = target: T2, RNase P protein (TmP, P protein) (Thermotoga maritima, UniProt Q9X1H4 1-117); assay: BLI; 10 mM Mg2+, 5% DMSO; BLI (Octet RED96): 20 mM HEPES pH 7.4, 100 mM ammonium acetate, 10 mM MgCl2, 2.5-5% DMSO, 30 C; P protein:P RNA in 33 mM Tris, 66.6 mM HEPES, 200 mM ammonium acetate, 10 mM MgCl2, pH 7.4; conditions: protein: recombinant; tags: N-terminal His6 (GST fusion cleaved with TEV); single strand
T2 sequence: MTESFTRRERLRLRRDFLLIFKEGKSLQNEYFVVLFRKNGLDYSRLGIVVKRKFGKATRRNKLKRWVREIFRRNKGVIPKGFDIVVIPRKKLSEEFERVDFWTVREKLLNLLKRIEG

CC(=O)Oc1cc(-c2coc3cc(OC(C)=O)c(OC(C)=O)c(OC(C)=O)c3c2=O)cc(OC(C)=O)c1OC(C)=O [iriginol hexaacetate, reference compound]
IC50 [1]: 29500 nM
IC50 [2]: 800 nM

GGAAAAAGAU (ssRNA) [5' RNA leader (10 nt)]
Kd [3]: 35.6 nM
